In one data set the test system is 5-Lipoxygenase. Kind of data set: 5-Lipoxygenase inhibitory activity (colorimetric, ferric xylenol orange). The data set is classed as biochemical. As to the method: 5-Lipoxygenase activity: The enriched fraction of tetrahydroxycurcumin mixture, pure TC and tetrahydrotetrahydroxycurcumin fraction were screened for their 5-Lipoxygenase inhibitory potential using colorimetric method. The assay mixture contained 50 mM phosphate buffer pH 6.3, 5-Lipoxygenase, various concentrations of test substances in dimethyl sulphoxide and linoleic acid in a total volume of 0.5 mL, after 5 min incubation of above reaction mixture, 0.5 mL ferric xylenol orange reagent was added and OD was measured after two minutes at 585 nm using spectrophotometer. […] Percent inhibition was calculated by comparing absorbance of test solution with that of control.

The subject of data set [1] is carrageenin induced paw edema. The data set can be described thus: Anti-inflammatory activity (carragenin induced paw edema method). The data set is classed as in vivo, Albino wistar rats. The conditions noted are these: at 25 mg concentration, oral, paw volume 3 h after carrageenin. How it is done: The invention also describes use of enriched tetrahydroxycurcumin fraction containing 70-100% of TC for treating anti-inflammatory conditions.
Anti-inflammatory activity (Carragenin induced paw edema method): Prior to the experiment all the animals (Albino wistar rats of either sex weighing between 180-300 g) fasted at ad libitum water and were weighed, numbered and randomly divided into groups, each containing 3 animals. Initial paw volumes were measured using plethesmometer and noted. All the groups were treated with corresponding test substance orally using gastric tube. Control group was treated with 10 mL/Kg vehicle (0.5%, carboxymethyl cellulose sodium salt). After 30 minutes, all the animals were injected subcutaneously at subplantar region of left hind paw 1% carrageenin 0.1 mL using hypodermic needle. All the animals were administered water 20 mL/Kg body weight and kept devoid of water for 3 h (maintained uniform hydration). After 3 h, paw volumes of all the animals were measured twice and average volume from two measurements were recorded. The % of inhibition of paw edema was calculated by comparing paw edema of test substance treated groups with that of control groups.

With `CC(Cc1ccc(O)c(O)c1)C(C)Cc1ccc(O)c(O)c1` (centres unmarked) [NDGA, Nordihydroguaiaretic acid], in the data set with 5-Lipoxygenase (concentration 24 μg/mL), the “% of inhibition (5-Lipoxygenase)” value is given as 60%.

What is called melting point is the temperature of the solid-liquid transition. Compound `O=C(/C=C/c1ccc(O)c(O)c1)CC(=O)/C=C/c1ccc(O)c(O)c1` [Pure tetrahydroxycurcumin (TC), 1,7-Bis(3,4-dihydroxyphenyl)-1,6-heptadiene-3,5-dione] had a melting point of 302 to 304 °C. In addition, in the data set with 5-Lipoxygenase (concentration 16 μg/mL), the “% of inhibition (5-Lipoxygenase)” value stood at 60%.

As to `O=C(O)Cc1ccccc1Nc1c(Cl)cccc1Cl` [diclofenac sodium], the “% inhibition of paw edema” value in data set [1] is 63.10%.

With Acetyl-keto-boswellic acid [AKBA], the “% of inhibition (5-Lipoxygenase)” value in the data set on 5-Lipoxygenase (concentration 41 μg/mL) is 55%.

Values taken from US8568802B2, “Process for producing enriched fractions of tetrahydroxycurcumin and tetrahydrotetrahydroxy-curcumin from the extracts of Curcuma longa” (Laila Impex, priority 2005, dated 2013).
